By IC50 is commonly meant the concentration that inhibits the measured activity by half. High values mean a need for much substance, low ones inhibition by little substance.

This test has as its target Histone-lysine N-methyltransferase EZH2 [Y641F] (Homo sapiens, UniProt Q15910, Y641F). The experiment in a line: In Vitro Methyltransferase Activity Assay. Here is the method: Recombinant PRC2 (EZH2-Y641F) was purchased from Active motif, S-adenosyl-methionine (SAM) and Poly-L-lysine (PLL) were purchased from Sigma-Aldrich, and H3(1-50)K27me1 peptide was purchased from Cisbio. LANCEUltrasystem (Perkinelmer) was used for detection system. In the enzyme activity test, compounds to be tested were diluted by 8 gradient points in a ratio of 1:3, and added into each well in a reaction plate, and 100 ng recombinase was added, followed by a buffer [20 mM Tris pH8.5, 2 mM MgCl2, 0.01% Tween-20, 1 mM TCEP] containing 2.5 uM SAM/250 nM H3 (1-50)K27me1 premixtures. Enzymatic reaction thus began at room temperature. After reacted for 3 hours, a detection solution premixed with PLL, detection antibody and Ulight was added, and reacted for 1 hour at room temperature. The fluorescence value was then read on a Tecan infinite pro. IC50 was calculated by fitting in a four-factor model in the XLfit software.

Sequence of Histone-lysine N-methyltransferase EZH2 [Y641F] (Q15910 whole entry Y641F): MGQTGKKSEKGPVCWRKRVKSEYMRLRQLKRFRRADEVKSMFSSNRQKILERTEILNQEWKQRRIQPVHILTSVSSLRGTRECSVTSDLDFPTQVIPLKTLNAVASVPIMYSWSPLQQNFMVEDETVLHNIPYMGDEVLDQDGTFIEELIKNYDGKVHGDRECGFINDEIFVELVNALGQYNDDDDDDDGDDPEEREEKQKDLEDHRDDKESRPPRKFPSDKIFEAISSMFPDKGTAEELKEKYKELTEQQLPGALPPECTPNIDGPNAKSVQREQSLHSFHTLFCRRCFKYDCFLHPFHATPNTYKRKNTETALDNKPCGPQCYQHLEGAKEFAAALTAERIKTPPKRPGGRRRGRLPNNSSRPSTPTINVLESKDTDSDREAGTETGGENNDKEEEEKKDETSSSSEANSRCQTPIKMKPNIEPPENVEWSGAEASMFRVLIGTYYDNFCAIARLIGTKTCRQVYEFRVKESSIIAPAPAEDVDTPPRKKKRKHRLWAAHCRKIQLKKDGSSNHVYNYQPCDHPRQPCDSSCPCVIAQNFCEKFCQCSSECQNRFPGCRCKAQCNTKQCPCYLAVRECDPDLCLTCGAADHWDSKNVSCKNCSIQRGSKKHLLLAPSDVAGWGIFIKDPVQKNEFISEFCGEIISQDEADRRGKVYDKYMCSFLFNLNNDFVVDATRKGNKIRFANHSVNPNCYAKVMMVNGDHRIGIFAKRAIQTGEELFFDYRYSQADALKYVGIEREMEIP

For the molecule `CCN(c1c(C)c(C(=O)NCc2c(C)cc(C)[nH]c2=O)cc2c1cnn2C)C1CCOCC1` [US11104664, Compound P-7], the IC50 was 12 nM.

The record behind these values is BindingDB's records for patent US11104664 (Yangtze River Pharmaceutical Group Co., 2021).
